Results from PMC8619914, “Development of Novel Peptides for the Antimicrobial Combination Therapy against Carbapenem-Resistant Acinetobacter baumannii Infection” (Pharmaceutics, 2021).
In brackets after ≈: the same amount, converted by molar mass. Like-named read-outs stand apart in the source and are kept apart here.

What was measured:
[1] = system: Acinetobacter baumannii (KCCM 40203); assay: microbe, parasite or virus in culture; conditions: Acinetobacter baumannii, KCCM40203, 16 h, read-out: Minimum Inhibitory Concentration, A. baumanii
Description: (§1) The Gram-negative bacterial strain Escherichia coli (KCTC 1682) and Gram-positive bacterial strain Staphylococcus aureus (KCTC 1621) were purchased from the Korean Collection for Type Cultures (Jeongeup, Korea). Acinetobacter baumannii (KCCM 40203) were purchased from Korea Culture Center of Microorganisms (Seoul, Korea). Additionally, five carbapenem-resistant Acinetobacter baumanii C1–C5 (CRAB C1–C5), which have the OXA-23 gene with carbapenem-resistance were collected from the patients with CRAB bacteremia, who presented symptoms and signs of infection at Korea University Anam Hospital (Seoul, Korea) (IRB registration no. 2020AN0157). The minimum inhibitory concentrations (MIC) of the AMP and antibiotics against the various bacterial strains were assessed using the serial dilution method on Muller–Hinton (MH) media, as described previously. […] Absorbance at 600 nm was measured using a SpectraMAX microplate reader (Molecular Devices, San Jose, CA, USA).
(§2) Measurement of the minimum inhibitory concentrations (MIC) was conducted to determine the effect of the hydrophobicity of each antimicrobial peptide on its antimicrobial activity. MIC was defined as the minimum concentration that killed more than 99% of bacteria; it was measured against two standard Gram-negative bacteria (E. coli and A. baumanii), five clinically isolated CRAB (C1–C5), and one Gram-positive bacteria (S. aureus).

CRAB C1 [2] = assay: microbe, parasite or virus in culture; conditions: Acinetobacter baumannii, 16 h
Description: as §1, §2

CRAB C2 [3] = assay: microbe, parasite or virus in culture; conditions: Acinetobacter baumannii, 16 h, read-out: Minimum Inhibitory Concentration, CRAB C2
Description: as §1, §2

CRAB C3 [4] = assay: microbe, parasite or virus in culture; conditions: Acinetobacter baumannii, 16 h, read-out: Minimum Inhibitory Concentration, CRAB C3
Description: as §1, §2

CRAB C4 [5] = assay: microbe, parasite or virus in culture; conditions: Acinetobacter baumannii, 16 h, read-out: Minimum Inhibitory Concentration, CRAB C4
Description: as §1, §2

CRAB C5 [6] = assay: microbe, parasite or virus in culture; conditions: Acinetobacter baumannii, 16 h, read-out: Minimum Inhibitory Concentration, CRAB C5
Description: as §1, §2

[7] = system: Escherichia coli (KCTC 1682); assay: microbe, parasite or virus in culture; conditions: Escherichia coli, KCTC1682, 16 h, read-out: Minimum Inhibitory Concentration, E. coli
Description: as §1, §2

[8] = system: Staphylococcus aureus (KCTC 1621); assay: microbe, parasite or virus in culture; conditions: Staphylococcus aureus, KCTC1621, 16 h, read-out: Minimum Inhibitory Concentration, S.aureus
Description: as §1, §2

[9] = system: Gram-negative bacterial strains; assay: organism not typed; conditions: read-out: GM (mean MIC of Gram-negative bacterial strains)
Description: as §1
Geometric means (GM) were calculated to compare the relative antimicrobial activities of the analogs against Gram-negative bacteria. […] Next, the antibacterial mechanisms of peptides were investigated.

CRAB C1 [10] = assay: microbe, parasite or virus in culture; conditions: Acinetobacter baumannii, 16 h, read-out: MIC alone, CRAB C1
Method: (§3) The synergistic effects of AMPs and antibiotics were measured using checkerboard assays. Serial dilutions of PapMA-3 and antibiotics were performed from 1 to […] of the MIC. Samples were then cross-mixed and cultured in MH medium with 2 × 10^5 CFU·ml^−^1 bacteria. Results were recorded after 16 h of incubation at 37 °C. The fractional inhibitory concentration index (FICI) was calculated according to the European Committee on Antimicrobial Susceptibility (EUCAST).
(§4) The ability of PapMA-3 to facilitate these antibiotics in penetrating the bacterial membranes of Gram-negative bacteria was investigated.

CRAB C2 [11] = assay: microbe, parasite or virus in culture; conditions: Acinetobacter baumannii, 16 h, read-out: MIC alone, CRAB C2
Method: as §3, §4

CRAB C3 [12] = assay: microbe, parasite or virus in culture; conditions: Acinetobacter baumannii, 16 h, read-out: MIC alone, CRAB C3
Method: as §3, §4

CRAB C4 [13] = assay: microbe, parasite or virus in culture; conditions: Acinetobacter baumannii, 16 h, read-out: MIC alone, CRAB C4
Method: as §3, §4

CRAB C5 [14] = assay: microbe, parasite or virus in culture; conditions: Acinetobacter baumannii, 16 h, read-out: MIC alone, CRAB C5
Method: as §3, §4

CRAB C1 biofilm = assay: Biofilm inhibition, crystal violet; format: cell-based, carbapenem-resistant Acinetobacter baumannii; conditions: Acinetobacter baumannii, read-out: percentage of biofilm inhibition
Method: CRAB C1 cells (2 × 10^5 CFU·mL^−^1) were incubated with PapMA-3 and antibiotics in a tissue-culture well plate in MH medium containing 0.2% glucose for 16 h at 37 °C. The cells were stained with 0.1% (w/v) crystal violet in 0.25% (v/v) acetic acid for 1 h at room temperature; the dye complex was dissolved with ethanol. Absorbance at 595 nm was measured using SpectraMAX microplate reader (Molecular Devices) to quantify the biofilm formation.
Biofilms were quantified by staining with crystal violet. (A) Absorbance of crystal violet-stained biofilms with treatment of PapMA-3 and antibiotics at a concentration range of 32 to 512 μg·mL^−1, assessed at 595 nm. […] CRAB C1 without peptides or antibiotics served as the control (red). Statistical analysis was performed using two-way ANOVA with Dunnett’s comparison test. The values are expressed as the mean ± SEM of three independent experiments and are statistically significant at ** p < 0.01 and *** p < 0.001. ns, not significant.

[15] = read-out: Minimum Inhibitory Concentration, CRAB C1
[16] = 32 μg·mL^−1, CRAB C1, compared to the control

SMILES	MIC [1] [µg/mL]	MIC (CRAB C1 [2]; [15]) [µg/mL]	MIC (CRAB C1 [2]; read-out: Minimum Inhibitory Concentration, CRAB C1, MH Media) [µg/mL]	MIC (CRAB C2 [3]) [µg/mL]	MIC (CRAB C3 [4]) [µg/mL]	MIC (CRAB C4 [5]) [µg/mL]	MIC (CRAB C5 [6]) [µg/mL]	MIC [7] [µg/mL]	MIC [8] [µg/mL]	MIC [9] [µg/mL]	MIC (CRAB C1 [10]) [µg/mL]	MIC (CRAB C2 [11]) [µg/mL]	MIC (CRAB C3 [12]) [µg/mL]	MIC (CRAB C4 [13]) [µg/mL]	MIC (CRAB C5 [14]) [µg/mL]	inhibition at 32 µg/mL (CRAB C1 biofilm; [16]) [%]	inhibition at 32 µg/mL (CRAB C1 biofilm) [%]
C[C@@H](O)[C@H]1C(=O)N2C(C(=O)O)=C(SCCN=CN)C[C@H]12 [Imipenem]	0.25 (≈ 0.835 µM)	64 (≈ 214 µM)	64 (≈ 214 µM)	64 (≈ 214 µM)	64 (≈ 214 µM)	64 (≈ 214 µM)	64 (≈ 214 µM)	0.25 (≈ 0.835 µM)	1 (≈ 3.34 µM)	46	64	64	64	64	64	88.9	–
CC(=O)NC[C@H]1CN(c2ccc(N3CCOCC3)c(F)c2)C(=O)O1 [Linezolid]	256 (≈ 759 µM)	256 (≈ 759 µM)	–	256 (≈ 759 µM)	256 (≈ 759 µM)	512 (≈ 1520 µM)	512 (≈ 1520 µM)	256 (≈ 759 µM)	1 (≈ 2.96 µM)	329	256	256	256	512	512	4.4	–
CN[C@H](CC(C)C)C(=O)N[C@H]1C(=O)N[C@@H](CC(N)=O)C(=O)N[C@H]2C(=O)N[C@H]3C(=O)N[C@H](C(=O)N[C@H](C(=O)O)c4cc(O)cc(O)c4-c4cc3ccc4O)[C@H](O)c3ccc(c(Cl)c3)Oc3cc2cc(c3O[C@@H]2O[C@H](CO)[C@@H](O)[C@H](O)[C@H]2O[C@H]2C[C@](C)(N)[C@H](O)[C@H](C)O2)Oc2ccc(cc2Cl)[C@H]1O [Vancomycin]	256 (≈ 177 µM)	256 (≈ 177 µM)	–	256 (≈ 177 µM)	256 (≈ 177 µM)	512 (≈ 353 µM)	256 (≈ 177 µM)	128 (≈ 88.3 µM)	0.5 (≈ 0.345 µM)	274	256	256	256	512	256	–	77.2

More lines, main results first:

MIC [1] [µg/mL]	MIC (CRAB C1 [2]; [15]) [µg/mL]	MIC (CRAB C1 [2]; read-out: Minimum Inhibitory Concentration, CRAB C1, MH Media) [µg/mL]	MIC (CRAB C2 [3]) [µg/mL]	MIC (CRAB C3 [4]) [µg/mL]	MIC (CRAB C4 [5]) [µg/mL]	MIC (CRAB C5 [6]) [µg/mL]	MIC [7] [µg/mL]	MIC [8] [µg/mL]	MIC [9] [µg/mL]	MIC (CRAB C1 [10]) [µg/mL]	MIC (CRAB C2 [11]) [µg/mL]	MIC (CRAB C3 [12]) [µg/mL]	MIC (CRAB C4 [13]) [µg/mL]	MIC (CRAB C5 [14]) [µg/mL]	SMILES	inhibition at 32 µg/mL (CRAB C1 biofilm; [16]) [%]	inhibition at 32 µg/mL (CRAB C1 biofilm) [%]
0.25 (≈ 0.652 µM)	128 (≈ 334 µM)	–	64 (≈ 167 µM)	64 (≈ 167 µM)	128 (≈ 334 µM)	64 (≈ 167 µM)	0.25 (≈ 0.652 µM)	1 (≈ 2.61 µM)	64	128	64	64	128	64	C[C@@H](O)[C@H]1C(=O)N2C(C(=O)O)=C(S[C@@H]3CN[C@H](C(=O)N(C)C)C3)[C@H](C)[C@H]12 [Meropenem]	79.2	–
4 (≈ 4.86 µM)	128 (≈ 156 µM)	–	64 (≈ 77.8 µM)	128 (≈ 156 µM)	128 (≈ 156 µM)	256 (≈ 311 µM)	2 (≈ 2.43 µM)	1 (≈ 1.22 µM)	101	128	64	128	128	256	CO[C@H]1/C=C/O[C@@]2(C)Oc3c(C)c(O)c4c(O)c(c(/C=N/N5CCN(C)CC5)c(O)c4c3C2=O)NC(=O)/C(C)=C\C=C\[C@H](C)[C@H](O)[C@@H](C)[C@@H](O)[C@@H](C)[C@H](OC(C)=O)[C@@H]1C [Rifampin]	77.5	–
